Assay results taken from ChEMBL document CHEMBL1201862, “PubChem BioAssay data set” (2004).
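How tested: cells in 96-well plates exposed to compound for 48 hours at five concentrations. GI50 marks 50% less growth.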 Activity calls are given as the source filed them. Rule as the data show it: active = GI50 up to about 1.1 µM and inactive = higher.

Tests used:
Assay in all cases: NCI tumour cell line growth inhibition, 48 h
HOP-62 = tested on: HOP-62
COLO 205 = tested on: COLO 205
NCI-H522 = tested on: NCI-H522
OVCAR-4 = tested on: OVCAR-4
HOP-92 = tested on: HOP-92
HCT-15 = tested on: HCT-15
M14 = tested on: M14
K562 = tested on: K562
MDA-N = tested on: MDA-N
IGROV-1 = tested on: IGROV-1
RXF 393 = tested on: RXF 393
A498 = tested on: A498
NCI/ADR-RES = tested on: NCI/ADR-RES
MOLT-4 = tested on: MOLT-4
SW-620 = tested on: SW-620
OVCAR-8 = tested on: OVCAR-8
SF-539 = tested on: SF-539
SR = tested on: SR
SNB-19 = tested on: SNB-19
TK-10 = tested on: TK-10
SF-268 = tested on: SF-268
U-251 = tested on: U-251
Hs-578T = tested on: Hs-578T
NCI-H226 = tested on: NCI-H226
T47D = tested on: T47D
SK-MEL-28 = tested on: SK-MEL-28
OVCAR-5 = tested on: OVCAR-5
OVCAR-3 = tested on: OVCAR-3
SK-MEL-2 = tested on: SK-MEL-2
SF-295 = tested on: SF-295
UO-31 = tested on: UO-31
A549 = tested on: A549
RPMI-8226 = tested on: RPMI-8226
Malme-3M = tested on: Malme-3M
BT-549 = tested on: BT-549
UACC-62 = tested on: UACC-62
HL-60 = tested on: HL-60
KM12 = tested on: KM12
MDA-MB-435 = tested on: MDA-MB-435
UACC-257 = tested on: UACC-257
HCT-116 = tested on: HCT-116
NCI-H460 = tested on: NCI-H460
LOX IMVI = tested on: LOX IMVI
CAKI-1 = tested on: CAKI-1
ACHN = tested on: ACHN
MDA-MB-231 = tested on: MDA-MB-231
NCI-H23 = tested on: NCI-H23
HT-29 = tested on: HT-29
786-0 = tested on: 786-0
EKVX = tested on: EKVX
SNB-75 = tested on: SNB-75
SK-OV-3 = tested on: SK-OV-3
SK-MEL-5 = tested on: SK-MEL-5
CCRF-CEM = tested on: CCRF-CEM
MCF7 = tested on: MCF7
PC-3 = tested on: PC-3
DU-145 = tested on: DU-145
HCC 2998 = tested on: HCC 2998
SN12C = tested on: SN12C

COC(=O)[C@H](C)N(C)C(=O)[C@H](C)N1[C@@H](c2ccccc2)COC1(C)C
GI50 (HOP-62): > 100 µM (inactive)
GI50 (COLO 205): > 100 µM (inactive)
GI50 (NCI-H522): > 100 µM (inactive)
GI50 (OVCAR-4): > 100 µM (inactive)
GI50 (HOP-92): > 100 µM (inactive)
GI50 (HCT-15): > 100 µM
GI50 (M14): > 100 µM (inactive)
GI50 (K562): > 100 µM (inactive)
GI50 (MDA-N): > 100 µM (inactive)
GI50 (IGROV-1): > 100 µM (inactive)
GI50 (RXF 393): > 100 µM (inactive)
GI50 (A498): > 100 µM (inactive)
GI50 (NCI/ADR-RES): > 100 µM (inactive)
GI50 (MOLT-4): > 100 µM (inactive)
GI50 (SW-620): > 100 µM (inactive)
GI50 (OVCAR-8): > 100 µM (inactive)
GI50 (SF-539): > 100 µM (inactive)
GI50 (SR): > 100 µM (inactive)
GI50 (SNB-19): > 100 µM (inactive)
GI50 (TK-10): > 100 µM (inactive)
GI50 (SF-268): > 100 µM (inactive)
GI50 (U-251): > 100 µM (inactive)
GI50 (Hs-578T): > 100 µM (inactive)
GI50 (NCI-H226): > 100 µM (inactive)
GI50 (T47D): > 100 µM (inactive)
GI50 (SK-MEL-28): > 100 µM (inactive)
GI50 (OVCAR-5): > 100 µM (inactive)
GI50 (OVCAR-3): > 100 µM (inactive)
GI50 (SK-MEL-2): > 100 µM (inactive)
GI50 (SF-295): > 100 µM (inactive)
GI50 (UO-31): > 100 µM (inactive)
GI50 (A549): > 100 µM (inactive)
GI50 (RPMI-8226): > 100 µM (inactive)
GI50 (Malme-3M): > 100 µM (inactive)
GI50 (BT-549): > 100 µM (inactive)
GI50 (UACC-62): > 100 µM (inactive)
GI50 (HL-60): > 100 µM (inactive)
GI50 (KM12): > 100 µM (inactive)
GI50 (MDA-MB-435): > 100 µM (inactive)
GI50 (UACC-257): > 100 µM (inactive)
GI50 (HCT-116): > 100 µM (inactive)
GI50 (NCI-H460): > 100 µM (inactive)
GI50 (LOX IMVI): > 100 µM (inactive)
GI50 (CAKI-1): > 100 µM (inactive)
GI50 (ACHN): > 100 µM (inactive)
GI50 (MDA-MB-231): > 100 µM (inactive)
GI50 (NCI-H23): > 100 µM (inactive)
GI50 (HT-29): > 100 µM (inactive)
GI50 (786-0): > 100 µM (inactive)
GI50 (EKVX): > 100 µM (inactive)
GI50 (SNB-75): 92.7 µM (inactive)
GI50 (SK-OV-3): > 100 µM (inactive)
GI50 (SK-MEL-5): > 100 µM (inactive)
GI50 (CCRF-CEM): > 100 µM (inactive)
GI50 (MCF7): > 100 µM (inactive)
GI50 (PC-3): > 100 µM (inactive)

CC1=CCC[C@@](C)(O)[C@@H]2C[C@H]3C(CSc4ccccc4)C(=O)O[C@H]3[C@@H](O2)[C@H](C)CCC1 (stereo partly drawn)
GI50 (HOP-62): 16.6 µM (inactive)
GI50 (COLO 205): 18.1 µM (inactive)
GI50 (NCI-H522): 10.7 µM (inactive)
GI50 (OVCAR-4): 19.8 µM (inactive)
GI50 (HOP-92): 26.9 µM (inactive)
GI50 (HCT-15): 19 µM
GI50 (M14): 13.7 µM (inactive)
GI50 (K562): 9.08 µM (inactive)
GI50 (MDA-N): 24.5 µM (inactive)
GI50 (IGROV-1): 14.5 µM (inactive)
GI50 (RXF 393): 13.7 µM (inactive)
GI50 (A498): 18 µM (inactive)
GI50 (MOLT-4): 7.13 µM (inactive)
GI50 (SW-620): 27 µM (inactive)
GI50 (OVCAR-8): 13.7 µM (inactive)
GI50 (SF-539): 16.4 µM (inactive)
GI50 (SR): 6.35 µM (inactive)
GI50 (SNB-19): 13.2 µM (inactive)
GI50 (TK-10): 17.3 µM (inactive)
GI50 (SF-268): 34 µM (inactive)
GI50 (U-251): 21.2 µM (inactive)
GI50 (DU-145): 25.6 µM (inactive)
GI50 (Hs-578T): 18.4 µM (inactive)
GI50 (T47D): 22.2 µM (inactive)
GI50 (SK-MEL-28): 21 µM (inactive)
GI50 (HCC 2998): 15.8 µM (inactive)
GI50 (OVCAR-5): 15.9 µM (inactive)
GI50 (OVCAR-3): 13 µM (inactive)
GI50 (SK-MEL-2): 17.2 µM (inactive)
GI50 (SF-295): 12 µM (inactive)
GI50 (UO-31): 11.8 µM (inactive)
GI50 (A549): 10.5 µM (inactive)
GI50 (RPMI-8226): 7.43 µM (inactive)
GI50 (Malme-3M): 13.7 µM (inactive)
GI50 (BT-549): 22.7 µM (inactive)
GI50 (SN12C): 38.2 µM (inactive)
GI50 (UACC-62): 14.8 µM (inactive)
GI50 (HL-60): > 100 µM (inactive)
GI50 (KM12): 9.18 µM (inactive)
GI50 (MDA-MB-435): 20.3 µM (inactive)
GI50 (UACC-257): 18.6 µM (inactive)
GI50 (HCT-116): 21.4 µM (inactive)
GI50 (NCI-H460): 6.1 µM (inactive)
GI50 (LOX IMVI): 15.9 µM (inactive)
GI50 (CAKI-1): 25.1 µM (inactive)
GI50 (ACHN): 12.9 µM (inactive)
GI50 (MDA-MB-231): 28.1 µM (inactive)
GI50 (NCI-H23): 16.8 µM (inactive)
GI50 (786-0): 20.3 µM (inactive)
GI50 (EKVX): 18.6 µM (inactive)
GI50 (SNB-75): 13.6 µM (inactive)
GI50 (SK-OV-3): 21.5 µM (inactive)
GI50 (SK-MEL-5): 14.5 µM (inactive)
GI50 (CCRF-CEM): > 100 µM (inactive)
GI50 (MCF7): 13.8 µM (inactive)
GI50 (PC-3): 6.62 µM (inactive)

CC[N+]1(C)CCC(O)(c2ccc(Cl)c(Cl)c2)C(C(=O)c2ccc(Cl)c(Cl)c2)C1 (stereo not drawn)
GI50 (HOP-62): > 10 µM (inactive)
GI50 (COLO 205): > 10 µM (inactive)
GI50 (NCI-H522): 3.08 µM (inactive)
GI50 (OVCAR-4): > 10 µM (inactive)
GI50 (HOP-92): > 10 µM (inactive)
GI50 (HCT-15): > 10 µM
GI50 (M14): > 10 µM (inactive)
GI50 (K562): > 10 µM (inactive)
GI50 (MDA-N): > 10 µM (inactive)
GI50 (IGROV-1): > 10 µM (inactive)
GI50 (RXF 393): > 10 µM (inactive)
GI50 (A498): > 10 µM (inactive)
GI50 (NCI/ADR-RES): > 10 µM (inactive)
GI50 (MOLT-4): > 10 µM (inactive)
GI50 (SW-620): > 10 µM (inactive)
GI50 (OVCAR-8): > 10 µM (inactive)
GI50 (SF-539): > 10 µM (inactive)
GI50 (SR): > 10 µM (inactive)
GI50 (SNB-19): > 10 µM (inactive)
GI50 (TK-10): > 10 µM (inactive)
GI50 (SF-268): > 10 µM (inactive)
GI50 (U-251): > 10 µM (inactive)
GI50 (DU-145): > 10 µM (inactive)
GI50 (Hs-578T): > 10 µM (inactive)
GI50 (NCI-H226): > 10 µM (inactive)
GI50 (T47D): > 10 µM (inactive)
GI50 (SK-MEL-28): > 10 µM (inactive)
GI50 (HCC 2998): > 10 µM (inactive)
GI50 (OVCAR-5): > 10 µM (inactive)
GI50 (OVCAR-3): > 10 µM (inactive)
GI50 (SK-MEL-2): > 10 µM (inactive)
GI50 (SF-295): > 10 µM (inactive)
GI50 (UO-31): > 10 µM (inactive)
GI50 (A549): > 10 µM (inactive)
GI50 (RPMI-8226): > 10 µM (inactive)
GI50 (Malme-3M): > 10 µM (inactive)
GI50 (BT-549): > 10 µM (inactive)
GI50 (SN12C): > 10 µM (inactive)
GI50 (HL-60): > 10 µM (inactive)
GI50 (KM12): > 10 µM (inactive)
GI50 (UACC-257): > 10 µM (inactive)
GI50 (HCT-116): > 10 µM (inactive)
GI50 (NCI-H460): > 10 µM (inactive)
GI50 (LOX IMVI): > 10 µM (inactive)
GI50 (CAKI-1): > 10 µM (inactive)
GI50 (ACHN): > 10 µM (inactive)
GI50 (NCI-H23): > 10 µM (inactive)
GI50 (HT-29): > 10 µM (inactive)
GI50 (786-0): > 10 µM (inactive)
GI50 (EKVX): > 10 µM (inactive)
GI50 (SNB-75): > 10 µM (inactive)
GI50 (SK-OV-3): > 10 µM (inactive)
GI50 (SK-MEL-5): > 10 µM (inactive)
GI50 (CCRF-CEM): 2.61 µM (inactive)
GI50 (MCF7): > 10 µM (inactive)
GI50 (PC-3): > 10 µM (inactive)
